Key:
[1] = tested on: mouse model of colitis; conditions: cited from earlier work
[2] = tested on: colitis model mice (2.0% DSS, C57BL/6J); experiment: DSS-induced colitis model mice: colitis-suppressing action (body weight, DAI score, colon length); assay type: in vivo; conditions: oral, 7 days; for effect on colitis (overall): indigo amount 0.5 mg/day (equivalent to 25 mg/kg/day)
Method: As mice used in an animal test, C57BL/6J was started to use after preliminary breeding for 3 days after purchase. First, a 2.0% solution of DSS (dextran sulfate sodium salt, molecular weight 36,000 to 44,000) was given to mice to cause colitis to prepare colitis model mice. The colitis model mice were administered with only sterilized water to obtain control mice. It should be noted that, in order to maintain the colitis state of the mice for 7 days, the 2.0% DDS (dextran sulfate sodium salt) solution was orally administered at the same time as the administration of the sterile water. Five capsules (equivalent to indigo amount of 0.5 mg) and 15 capsules (equivalent to indigo amount of 1.5 mg) both of which were the indigo-containing capsules A were each orally administered to 5 specimens of colitis mice for 7 days. It should be noted that, in order to maintain the colitis state of the mice for 7 days, the 2.0% DDS (dextran sulfate sodium salt) solution was orally administered at the same time when the oral administration of the capsules A. Colitis-suppressing action of indigo was evaluated by a decrease in the endpoints such as body weight (BW), disease activity index (DAI) score (DAI score: a total score (0 to 12) of the number of defecation, bloody stool, mucosal findings, and general endpoints scored 0 to 3 on a 4-point scale), and colon length. […] FIG. 3 is a graph representing results of disease activity index score (DAI score). It should be noted that the DAI score refers to an evaluation index described in the literature “Sutherland L R, Martin F, Greer S, et al: 5-Aminosalicylic acid enema in the treatment of distal colitis, proctosigmoiditis, and proctitis. Gastroenterology 92: 1894-1898, 1987”. FIG. 4 is a graph representing results of measuring colon length. Since the colon length is shortened by causing colitis, the colon length of each mouse group was measured as another index for the evaluation of colitis, and the average value thereof was represented by a histogram.

[3] = indigo amount 0.5 mg/day, vs control group

O=C1/C(=C2\Nc3ccccc3C2=O)Nc2ccccc21 [indigo powder, indigo]
effect in colitis model mice ([1]; low dose 60 mg/kg/day of powder): effective
therapeutic effect in mouse model of colitis ([1]; powder administration): had a therapeutic effect
effect on colitis (overall) [2]: no effect of indigo was observed
effect on colitis (overall) ([2]; listed as powder): no effect
changes in body weight (BW) [2, 3]: decreasing the body weight was also observed as compared with the control group
colon length [2, 3]: the same as that of the control group

Reference: patent publication US12357579B2, “Capsule for treating ulcerative colitis” (KEIO UNIVERSITY, priority 2018, dated 2025)
